# Patent US10351594B2, “Process for preparing compounds having triple activities of thrombolysis, antithrombosis, and radical scavenging” (Shanghai Lumosa Therapeutics Co., Ltd., priority 2013, dated 2019)
# Marks after values point to notes of the source that are not given here.
# What was measured:
# [1] = test system: formation of thrombus (rat arteriovenous bypass); assay: Antithrombotic activity via intravenous administration, rat arteriovenous bypass cannula with thread; assay type: in vivo, male SD rats; conditions: n = 10
# Text: A cannula was composed of 3 segments. The middle segment has a length of 80 mm and an inner diameter of 3.5 mm. […] The pre-weighed, 60 mm in length thread was placed in the middle segment of the polyethylene tube. Both ends of the wider tube sheathed the un-narrowed ends of two polyethylene tubes respectively (0.5 mm of the thread was restrained by one of the segment to fix the thread). The cannula was filled with a heparin solution in normal saline (50 IU/kg) through the tip end by using an injector and was ready for use. 200-220 g male SD rats were anesthetized with 20% urethane solution (6 mL/kg, ip). Anesthetized rats were fixed in a supine position, and the left external jugular vein was separated and penetrated with a suture at the proximal and distal ends respectively, and the distal end was ligated. An incision was carefully made on the exposed left external jugular vein, and the tip end without thread-restraining of the bypass cannula prepared as described above was inserted into the proximal end of the open incision in the left external jugular vein. A precise amount of heparin in normal saline (50 IU/kg) was injected through the tip at the other end by using an injector. Then, the injector was replaced, and precise amount of drug was injected by the same way. At this moment, without removing the injector from the ethylene tube, the right common carotid artery was separated, and the proximal end was clipped by an artery clip. The right common carotid artery was penetrated with a suture at the proximal and distal ends respectively, and the distal end was ligated. An incision was carefully cut across the right common carotid artery near the artery clip. The injector was pulled out of the polyethylene tube through the tip, and the tip of the polyethylene tube was then inserted into the proximal end of the artery incision. Both ends of the bypass cannula were fixed to the artery or vein with #4 sutures. The artery clip was then removed to allow blood to flow from the artery to the vein through the bypass cannula. A rat arteriovenous bypass thrombolysis model was thus established. The process was timed from the beginning of circulation, the thread attached with thrombus was taken out from the bypass cannula after 15 minutes and accurately weighed. The difference in the mass of the thread before and after was determined as the wet weight of the thrombus, which was statistically analyzed and used to evaluate the in vivo antithrombotic activities of the compounds. The wet weight of the thrombus was expressed as average value and standard deviation (x±SD). The drug administration method is intravenous injection. The blank control was normal saline solution, and the dose was 1 mL/kg. The positive control was aspirin, and the dose was 9 mg/kg. The dose of compounds 5Aa-p of the present invention was 0.1 nmol/kg. The method was the same as in example 3. The drug administration method is intravenous injection. The blank control was normal saline solution, and the dose was 3 mL/kg. The positive control was aspirin, and the dose was 9 mg/kg.
# [2] = test system: thrombus (rat arteriovenous bypass thrombolysis model); assay: Thrombolytic activity via intravenous administration, rat arteriovenous bypass thrombolysis model; assay type: in vivo, male SD rats; conditions: n = 10
# Protocol: 200-220 g male SD rats were anesthetized with 20% urethane solution (6 mL/kg, ip). Anesthetized rats were fixed in a supine position, and the right common carotid artery was separated, clamped at the proximal end with an arterial clip, and penetrated with a suture at the proximal and distal ends, respectively. The suture at the distal end is clipped tightly by a hemostatic clamp at the skin/fur. Cannulation was performed at the distal end, the arterial clamp was loosened, and about 1 ml arterial blood was discharged into a 1 mL EP vial. 0.1 mL rat arterial blood was injected into a vertically fixed glass tube (15 mm in length, with an inner diameter of 2.5 mm and an outer diameter of 5.0 mm, sealed with a rubber stopper at the bottom), into which was immediately inserted a thrombus immobilization screw made of stainless steel. […] 40 min after the blood coagulated, the rubber stopper at the bottom of the glass tube was removed, the stem of the thrombus immobilization screw was fixed by forceps, and the thrombus-wrapped thrombus immobilization screw was carefully taken out from the glass tube and precisely weighted.
# A bypass cannula was composed of 3 segments. The middle segment was a polyethylene tube having a length of 60 mm and an inner diameter of 3.5 mm. The segments on both ends were similar polyethylene tubes having a length of 100 mm, an inner diameter of 1 mm and an outer diameter of 2 mm, one end of which was pulled to form a tip, with an outer diameter of 1.0 mm (used in inserting into the rat carotid artery or vein), the other end of which was sheathed by a polyethylene tube having a length of 7 mm and an outer diameter of 3.5 mm (thickened, used in inserting into the polyethylene tube of the middle segment). The inner wall of the 3-segment cannula was entirely silylated. The thrombus-wrapped thrombus immobilization screw was placed into the polyethylene tube of the middle segment, and both ends of the tube sheath the thickened ends of two polyethylene tubes. The cannula was filled with a heparin solution in normal saline (50 IU/kg) through the tip end by using an injector and was ready for use.
# The left external jugular vein of the rat was separated and penetrated with a suture at the proximal and distal ends respectively, and the distal end was ligated. An incision was carefully made on the exposed left external jugular vein, and the tip of the bypass cannula prepared as described above was inserted into the proximal end of the incision in the left external jugular vein, away from the stem of the thrombus immobilization screw in the middle segment of the bypass cannula (which accommodated the accurately weighed thrombus immobilization screw). A precise amount of heparin in saline (50 IU/kg) was injected through the tip at the other end by using an injector. At this moment, without removing the injector from the polyethylene tube, the tube between the injector and the polyethylene tube was clamped with a hemostatic clamp. The blood flow was stopped by clamping the proximal end of the right common carotid artery with an arterial clip, and an incision was cut carefully across the common carotid artery near the clip. The injector was pulled out of the polyethylene tube through the tip, and the tip of the polyethylene tube was then inserted into the proximal end of the artery incision. Both ends of the bypass cannula were fixed to the artery or vein with #4 sutures.
# A scalp needle was used to pass saline solution, a urokinase in saline solution or varied concentrations of the compounds in saline solution through the middle section of the bypass cannula (which accommodated the accurately weighed thrombus immobilization screw) to a position at the proximal vein and away from the thrombus immobilization screw. The artery clip was then removed to allow blood to flow from the artery to the vein through the bypass cannula. A rat arteriovenous bypass thrombolysis model was thus established. […]
# stroke rats = assay: Therapeutic effect in stroke rats (microthrombus injected into the brain, treated at once): Zealonga score and TTC infarction volume; assay type: in vivo, SD male rats; conditions: for Neural function scores: Zealonga method, 24 hours after awake, n = 9; for Percentage of infarction volume: cerebral infarction, TTC, n = 7
# Protocol: SD male rats (280-300 g) were randomly divided to UK positive control group at a dose of 20000 IU/kg, blank control group with normal saline solution, compound control group with PAK at a dose of 5 μmol/kg, and compound 5Ak group at a dose of 1 μmol/kg (high), 0.1 μmol/kg (medium), and 0.01 μmol/kg (low). A 10% chloral hydrate solution (400 mg/kg) was injected intraperitoneally into rats for anesthesia. […] The 10 μl blood drawn was placed in a 1 mL EP vial and kept at RT for 30 min to allow the coagulation of blood and then transferred into a −20° C. refrigerator for 1 hour to allow the formation of solid coagulation. 1 hour later, the blood clots were taken out, 1 mL normal saline was added therein, and then the blood clots were broken into relatively uniform microthrombus by a steel spatula. The microthrombus suspension was then transferred into a 1 mL injector for use. […] The common jugular vein was separated, and then injected with UK at the dose of 20000 IU/kg, normal saline solution, or compound 5Ak at the dose of 1 μmol/kg. The vein was ligated. 3 drops of penicillin was dropped on the wound. The wound was sewed, and animals were waited for awake.
# 24 hours after the rats were awake, the degree of damage in neural function was evaluated by the Zealonga method. […] The evaluation results were statistically analyzed and subjected to t-test.
# After the rats were awake for 24 hours and assessed for their degree of damage in neural function by Zealonga method, they were anesthetized with urethane followed by immediate decapitation and removal of the brain. Brain tissues were kept in a −20° C. refrigerator for 2 hours, and coronal sections of about 2 mm were successively sliced from the prefrontal end for a total of 5 sections and then placed into a 2% TTC solution to incubate without light at 37° C. for 30 min. The color change in brain sections was observed: normal brain tissues were stained red by TTC, while ischemic brain tissues appeared in white. Photographs were taken by using a digital camera and processed with image statistics software, and the volume of infarction in brain tissues and the area of normal brain tissues in the coronal sections were calculated. The ratio of the cerebral infarction volume of each group was statistically calculated and subject to t-test.
# [3] = Table 1, control groups 6, PAK, 6 + PAK, dose not given
molecule,measurement,setting,value
"CC(=O)Oc1ccccc1C(=O)O [Aspirin, aspirin, reference compound]",wet weight of thrombus,"[1]; Table 3, Aspirin 9 mg/kg",46.95 ± 5.21^a mg
same,wet weight of thrombus,"[1]; Table 4, Aspirin 9 mg/kg",45.62 ± 2.60 mg
"CC1(C)N[C@H](C(=O)N[C@@H](CCCCN)C(=O)O)Cc2cc(O)c(O)cc21 [Compound 6, 3S-6,7-dihydroxy-1,1-dimethyl-1,2,3,4-tetrahydro-isoquinoline-3-acyl-Lys, reference compound]",Weight reduction in thrombus,[2]; [3],13.87 ± 3.07^a mg
"Pro-Ala-Lys [PAK, reference compound]",Neural function scores,stroke rats; PAK 5 μmol/kg,2.20 ± 1.60
same,Percentage of infarction volume,stroke rats; PAK 5 μmol/kg,18.36 ± 7.38%
same,Weight reduction in thrombus,[2]; [3],14.17 ± 1.84^a mg
urokinase [reference compound],Neural function scores,stroke rats; urokinase 20000 IU/kg,1.30 ± 0.95^a
same,Percentage of infarction volume,stroke rats; urokinase 20000 IU/kg,4.60 ± 2.09%
same,Weight reduction in thrombus,"[2]; Table 1, urokinase 20000 U/kg (1.68 mg/kg) i.v.",18.95 ± 2.73^a mg
same,Weight reduction in thrombus,"[2]; Table 2, Urokinase 20000 U/kg i.v.",25.61 ± 3.87 mg
